Assay results from ChEMBL document CHEMBL3243922, “Synthesis, redox characteristics, and in vitro norepinephrine uptake inhibiting properties of 2-(2-mercapto-4,5-dihydroxyphenyl)ethylamine (6-mercaptodopamine)” (J Med Chem, 1979).

What was measured:
Details in all cases: in vivo
[1] = system: Rattus norvegicus; test: Pressor activity in iv dosed normotensive Sprague-Dawley rat assessed as dose required for increasing systolic blood pressure […] 30 mm Hg; type: organism-based, Artery
[2] = system: Rattus norvegicus; test: Neurotoxicity in Sprague-Dawley rat heart atria assessed as inhibition of [3H]norepinephrine uptake at 10 mg/kg, iv after 24 hrs by scintillation counting analysis; type: toxicity, organism-based; design: dose 10 mg/kg, route intravenous
[3] = system: Rattus norvegicus; test: Neurotoxicity in Sprague-Dawley rat heart atria assessed as inhibition of [3H]norepinephrine uptake at 20 to 160 mg/kg, iv after 24 hrs by scintillation counting analysis; type: toxicity, organism-based; design: dose 20-160 mg/kg, route intravenous
[4] = system: Rattus norvegicus; test: Central neurotoxicity in iv dosed Sprague-Dawley rat brain hypothalamus assessed as inhibition of [3H]norepinephrine uptake after 24 hrs by scintillation counting analysis; type: organism-based

Row | Compound | Activity [1] | Activity [2] | Activity [3] | Activity [4]
1 | C[C@H](N)Cc1ccc(O)c(O)c1 | 3.1 µg |  |  | 
2 | CC(N)Cc1cc(O)c(O)cc1O (stereo not drawn) | 6 ×10⁻⁵ g |  |  | 
3 | NCCc1ccc(O)c(O)c1 [DOPAMINE] | 2.9 µg |  |  | 
4 | NCCc1cc(O)c(O)cc1O [OXIDOPAMINE] | 1.6 ×10⁻⁵ g | Toxic |  | 
5 | Cl.NCCc1cc(O)c(O)cc1S | 1.3 ×10⁻⁴ g |  | Toxic | Non-toxic
